Data reported in patent publication US12495798B2, “Nicotinamide compound and herbicidal composition comprising compound” (KOREA RESEARCH INSTITUTE OF CHEMICAL TECHNOLOGY, priority 2019, dated 2025).

Assays:
Format in all cases: in vivo
velvetleaf [1] = assay: Herbicidal activity test against upland field weeds (soil treatment test); set-up: key to Soil treatment herbicidal activity, velvet leaf: 0 (no control); 100 (complete control); details: 50 g ai/ha, scale 0 (no control) to 100 (complete control)
Procedure: (§1) Experimental Example 2: Herbicidal Activity Test Against Upland Field Weeds (Soil Treatment Test) Soil treatment was performed as follows: After filling a square plastic pot having a surface area of 350 cm^2 with sandy loam mixed with 1 g per pot (350 cm^2) of horticultural mixed fertilizer (N:P:K=11:10:11), seeds (10˜15 grains) or rootstocks (2 pieces) of 5 kinds of grassy weeds of sorghum, barnyard grass, quack grass, crabgrass, fall panicum, and 5 kinds of broadleaf weeds of black nightshade, indian jointvetch, velvetleaf, cocklebur, bindweed, which had been stored in a low temperature (6° C.), were sown. The day after sowing, test compound solutions were made by diluting with a preparation solution (including 50% acetone, 0.1% Tween-20) so that the final treatment amount of the test compounds was 50 or 75 g a.i./ha. The prepared test compound solution was used for treating soil surface by hand-spraying 14 mL per pot in a fume hood. After the treatment, it was managed under the same greenhouse conditions (average temperature 30±5° C., light/dark=14/10 hours), and after 14 days (after 21 days if necessary), the external symptoms and efficacy were investigated according to the scale of 0 (no control) to 100 (complete control). The results of Table 8 were obtained by evaluating weed control value to the untreated control by conducting visual assessment.

crabgrass [2] = assay: Herbicidal activity test against upland field weeds (foliar treatment test); details: 50 g ai/ha, scale 0-100
In short: (§2)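 Greenhouse-grown plants (30±5 °C, 14/10 h light/dark) foliar hand-sprayed with compound in 50% acetone, 0.1% Tween-20 at 50 or 75 g a.i./ha. Control visually scored 0 (none) to 100 (complete) versus untreated after 14 days, or 21 days if needed.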

wheat = assay: Phytotoxicity test for upland field crops (foliar treatment test); set-up: key: 0 (no harm); 9 (complete withered)
In short: (§3)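 Phytotoxicity was rated on a 0 (no harm) to 9 (complete withered) scale relative to untreated plants, 7 and 14 days after spraying. Crops had been grown in fertilized horticultural soil under greenhouse conditions before foliar application at 19˜300 g a.i./ha.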

corn = assay: as above; set-up: key: 0 (no harm); 9 (complete withered)
In short: as §3

indian jointvetch [3] = assay: Herbicidal activity test against upland field weeds (foliar treatment test); details: 50 g ai/ha, scale 0-100
In short: as §2

sorghum [4] = assay: as above; details: 50 g ai/ha, scale 0-100
In short: as §2

velvetleaf [5] = assay: as above; set-up: key to Foliar treatment herbicidal activity, velvet leaf: 0 (no control); 100 (complete control); details: 50 g ai/ha; for Foliar treatment herbicidal activity, velvet leaf: scale 0-100
In short: as §2

cocklebur = assay: as above; details: 50 g ai/ha, scale 0-100
In short: as §2

quack grass [6] = assay: Herbicidal activity test against upland field weeds (soil treatment test); set-up: key to Soil treatment herbicidal activity, quack grass: 0 (no control); 100 (complete control); details: 50 g ai/ha, scale 0 (no control) to 100 (complete control)
Procedure: as §1

fall panicum [7] = assay: as above; set-up: key to Soil treatment herbicidal activity, Fall panicum: 0 (no control); 100 (complete control); details: 50 g ai/ha, scale 0 (no control) to 100 (complete control)
Procedure: as §1

barnyard grass [8] = assay: Herbicidal activity test against upland field weeds (foliar treatment test); set-up: key to Foliar treatment herbicidal activity, barnyard grass: 0 (no control); 100 (complete control); details: 50 g ai/ha, scale 0-100
In short: as §2

quack grass [9] = assay: as above; set-up: key to Foliar treatment herbicidal activity, quack grass: 0 (no control); 100 (complete control); details: 50 g ai/ha, scale 0-100
In short: as §2

bindweed [10] = assay: as above; set-up: key to Foliar treatment herbicidal activity, Bindweed: 0 (no control); 100 (complete control); details: 50 g ai/ha, scale 0-100
In short: as §2

bindweed [11] = assay: Herbicidal activity test against upland field weeds (soil treatment test); set-up: key to Soil treatment herbicidal activity, Bindweed: 0 (no control); 100 (complete control); details: 50 g ai/ha, scale 0 (no control) to 100 (complete control)
Procedure: as §1

black nightshade [12] = assay: as above; set-up: key to Soil treatment herbicidal activity, black nightshade: 0 (no control); 100 (complete control); details: 50 g ai/ha, scale 0 (no control) to 100 (complete control)
Procedure: as §1

sorghum [13] = assay: as above; set-up: key to Soil treatment herbicidal activity, Sorghum: 0 (no control); 100 (complete control); details: 50 g ai/ha, scale 0 (no control) to 100 (complete control)
Procedure: as §1

black nightshade [14] = assay: Herbicidal activity test against upland field weeds (foliar treatment test); set-up: key to Foliar treatment herbicidal activity, black nightshade: 0 (no control); 100 (complete control); details: 50 g ai/ha, scale 0-100
In short: as §2

barnyard grass [15] = assay: Herbicidal activity test against upland field weeds (soil treatment test); set-up: key to Soil treatment herbicidal activity, barnyard grass: 0 (no control); 100 (complete control); details: 50 g ai/ha, scale 0 (no control) to 100 (complete control)
Procedure: as §1

fall panicum [16] = assay: Herbicidal activity test against upland field weeds (foliar treatment test); details: 50 g ai/ha, scale 0-100
In short: as §2

indian jointvetch [17] = assay: Herbicidal activity test against upland field weeds (soil treatment test); set-up: key to Soil treatment herbicidal activity, Indian jointvetch: 0 (no control); 100 (complete control); details: 50 g ai/ha, scale 0 (no control) to 100 (complete control)
Procedure: as §1

crabgrass [18] = assay: as above; set-up: key to Soil treatment herbicidal activity, Crabgrass: 0 (no control); 100 (complete control); details: 50 g ai/ha, scale 0 (no control) to 100 (complete control)
Procedure: as §1

| SMILES | Soil treatment herbicidal activity, velvet leaf (velvetleaf [1]) | Soil treatment herbicidal activity, quack grass (quack grass [6]) | Soil treatment herbicidal activity, Fall panicum (fall panicum [7]) | Foliar treatment herbicidal activity, quack grass (quack grass [9]) | Foliar treatment herbicidal activity, black nightshade (black nightshade [14]) | Soil treatment herbicidal activity, barnyard grass (barnyard grass [15]) | Soil treatment herbicidal activity, Indian jointvetch (indian jointvetch [17]) | Soil treatment herbicidal activity, Crabgrass (crabgrass [18]) | Foliar treatment herbicidal activity, Crabgrass (crabgrass [2]) | Foliar treatment herbicidal activity, Indian jointvetch (indian jointvetch [3]) | Foliar treatment herbicidal activity, Sorghum (sorghum [4]) | Foliar treatment herbicidal activity, velvet leaf (velvetleaf [5]) | Foliar treatment herbicidal activity, Cocklebur (cocklebur) | Foliar treatment herbicidal activity, barnyard grass (barnyard grass [8]) | Foliar treatment herbicidal activity, Bindweed (bindweed [10]) | Soil treatment herbicidal activity, Bindweed (bindweed [11]) | Soil treatment herbicidal activity, black nightshade (black nightshade [12]) | Soil treatment herbicidal activity, Sorghum (sorghum [13]) | Foliar treatment herbicidal activity, Fall panicum (fall panicum [16]) | other results |
| --- | --- | --- | --- | --- | --- | --- | --- | --- | --- | --- | --- | --- | --- | --- | --- | --- | --- | --- | --- | --- |
| Cn1nnc(CSCc2nc(C(F)(F)F)ccc2C(=S)Nc2nnnn2C)n1 [Compound No. 2-107, N-(1-methyl-1H-tetrazol-5-yl)-2-((((2-methyl-2H-tetrazol-5-yl)methyl)thio)methyl)-6-(trifluoromethyl)pyridin-3-carbothioamide] | 100 | 0 | 0 | 0 | 100 | 0 | 0 | 0 |  |  |  |  |  |  |  |  |  |  |  | pest or weed control at 50 g/ha (crabgrass [2]; Digitaria sanguinalis): 95%; Foliar treatment phytotoxicity, Wheat (wheat; 50 g ai/ha, Wheat (7 days after treatment)): 3; Foliar treatment phytotoxicity, Wheat (wheat; 50 g ai/ha, Wheat (14 days after treatment)): 3; Foliar treatment phytotoxicity, Wheat (wheat; 100 g ai/ha, Wheat (7 days after treatment)): 4; Foliar treatment phytotoxicity, Wheat (wheat; 100 g ai/ha, Wheat (14 days after treatment)): 3; Foliar treatment phytotoxicity, Corn (corn; 50 g ai/ha, Corn (7 days after treatment)): 1; Foliar treatment phytotoxicity, Corn (corn; 50 g ai/ha, Corn (14 days after treatment)): 0; Foliar treatment phytotoxicity, Corn (corn; 100 g ai/ha, Corn (7 days after treatment)): 0; Foliar treatment phytotoxicity, Corn (corn; 100 g ai/ha, Corn (14 days after treatment)): 0; pest or weed control at 50 g/ha (indian jointvetch [3]): 98%; plant injury at 50 g/ha (sorghum [4]; Sorghum): 70%; pest or weed control at 50 g/ha (velvetleaf [5]; Abutilon theophrasti, scale 0-100, read-out: Foliar treatment herbicidal activity, velvet leaf): 70%; pest or weed control at 50 g/ha (cocklebur; Xanthium strumarium): 98%; pest or weed control at 50 g/ha (barnyard grass [8]; Echinochloa crus-galli): 70%; pest or weed control at 50 g/ha (bindweed [10]): 98%; pest or weed control at 50 g/ha (bindweed [11]): 40%; pest or weed control at 50 g/ha (black nightshade [12]; Solanum nigrum): 70%; plant injury at 50 g/ha (sorghum [13]; Sorghum): 20%; pest or weed control at 50 g/ha (fall panicum [16]; Panicum dichotomiflorum): 60% |
| CC(OC(=O)OC1CCCCC1)N(C(=O)c1ccc(C(F)(F)F)nc1COCc1nnn(C)n1)c1nnnn1C (centres unmarked) [Compound No. 4-11, cyclohexyl(1-(N-(1-methyl-1H-tetrazol-5-yl)-2-(((2-methyl-2H-tetrazol-5-yl)methoxy)methyl)-6-(trifluoromethyl)nicotinamido)ethyl)carbonate] | 100 | 0 | 60 | 0 | 100 | 100 | 40 | 100 | 98 | 98 | 60 | 100 | 98 | 98 | 100 | 0 | 100 | 0 | 95 |  |
| CC(C)OC(=O)OC(C)N(C(=O)c1ccc(C(F)(F)F)nc1COCc1nnn(C)n1)c1nnnn1C (centres unmarked) [Compound No. 4-12, isopropyl(1-(N-(1-methyl-1H-tetrazol-5-yl)-2-(((2-methyl-2H-tetrazol-5-yl)methoxy)methyl)-6-(trifluoromethyl)nicotinamido)ethyl)carbonate] | 100 | 0 | 90 | 0 | 100 | 100 | 40 | 100 | 95 | 98 | 70 | 100 | 98 | 100 | 100 | 98 | 100 | 20 | 98 |  |
